Measurements from US6534503B1, “Melanocortin receptor-3 ligands to treat sexual dysfunction” (Lion Bioscience AG, priority 1998, dated 2003).

What was measured:
MC-1 = biological target: T1, MC-1 (Homo sapiens, UniProt Q01726); assay: cAMP assay for melanocortin receptors, HEK 293 cells expressing MC-1; format: cell-based; details: concentration for 50% of the maximum increase by that ligand
T1 construct: expressed in transfected cells; host or cells: HEK 293
From the text: (§1) All cell culture media and reagents were obtained from GibcoBRL (Gaithersburg Md.), except for COSMIC CALF SERUM (HyClone; Logan Utah). HEK 293 cell lines were transfected with human MC receptors hMCR-1, hMCR-3 and hMCR-4 (Gantz et al., Biochem. Biophys. Res. Comm. 200:1214-1220 (1994); Gantz et al., J. Biol. Chem. 268:8246-8250 (1993); Gantz et al. J. Biol. Chem. 268:15174-15179 (1993); Haskell-Leuvano et al., Biochem. Biophys. Res. Comm. 204:1137-1142 (1994)). Vectors for constructing an hMCR-5-expressing cell line were obtained and a line of HEK 293 cells expressing hMCR-5 was constructed (Gantz, supra, 1994). Receptor hMCR-5 has been described previously (Franberg et al., Biochem. Biophys. Res. Commun. 236:489-492 (1997); Chowdhary et al., Cytogenet. Cell Genet. 68:1-2 (1995); Chowdhary et al., Cytogenet. Cell Genet. 68:79-81 (1995)). HEK 293 cells were maintained in DMEM, 25 mM HEPES, 2 mM glutamine, non-essential amino acids, vitamins, sodium pyruvate, 10% COSMIC CALF SERUM, 100 units/ml penicillin, 100 μg/ml streptomycin and 0.2 mg/ml G418 to maintain selection.
(§2) This example describes methods for assaying cAMP production from G-protein-coupled MC receptors.
(§3) HEK 293 cells individually expressing MCR-1, CR-3, MCR-4 or MCR-5 were used. Cells were plated at 20,000 cells per well in a 96-well plate coated with collagen (Beckton Dickinson; Bridgeport N.J.). The next day, cells were pretreated with 88 μl of 0.4 mM 3-isobutyl-1-methylxanthine (IBMX) in low serum medium containing DMEM, 25 mM HEPES and 0.1% COSMIC CALF SERUM. IBMX is an inhibitor of cAMP phosphodiesterase. The pretreatment was carried out for 10 minutes at 37° C.
(§4) Following pretreatment, 12.5 μl of diluted compound was added to the wells and cells were incubated for 15 min at 37° C. Cells were lysed by adding 25 μl saponin lysis buffer (130 mM KCl, 1 mM KH2PO4, 2.5 mM MgSO4, 15 mM sucrose, 20 mM HEPES, 2% BSA, 0.8% saponin) and incubating 2 to 5 minutes. Plates were covered and stored at −20° C.
The cAMP concentration was determined by ELISA. Briefly, 96 well ELISA plates were coated with goat anti-cAMP antibody in PBS for 12 to 72 hr at 4° C. 50 μl of sample was mixed with 50 μl of cAMP ELISA buffer containing 1% bovine serum albumin, 10% heat inactivated donor horse serum, 1% normal mouse serum and 0.05% TWEEN-20 in PBS, and the diluted sample was added to the coated ELISA plate. Standards of known concentrations of cAMP were added to separate wells. Then, cAMP-conjugated horseradish peroxidase (cAMP-HRP) was added to each well at 25 μl of 16 ng/ml. The plates were incubated for 3 hr at room temperature. Plates were washed and the binding of cAMP-HRP was detected with 3,3′,5,5′-tetramethylbenzidine (TMB) and hydrogen peroxide using standard immunoassay procedures. […]

MC-3 = biological target: T2, MC-3 (Homo sapiens, UniProt P41968); assay: cAMP assay for melanocortin receptors, HEK 293 cells expressing MC-3; format: cell-based; details: for Emax: HEK293, percentage of stimulation obtained by adding HP-228 at 0.8 μM, read-out: % of HP-228 (MC-3 stimulatory effect); for EC50: concentration for 50% of the maximum increase by that ligand
T2 construct: expressed in transfected cells; host or cells: HEK 293
T2 sequence (P41968 whole entry): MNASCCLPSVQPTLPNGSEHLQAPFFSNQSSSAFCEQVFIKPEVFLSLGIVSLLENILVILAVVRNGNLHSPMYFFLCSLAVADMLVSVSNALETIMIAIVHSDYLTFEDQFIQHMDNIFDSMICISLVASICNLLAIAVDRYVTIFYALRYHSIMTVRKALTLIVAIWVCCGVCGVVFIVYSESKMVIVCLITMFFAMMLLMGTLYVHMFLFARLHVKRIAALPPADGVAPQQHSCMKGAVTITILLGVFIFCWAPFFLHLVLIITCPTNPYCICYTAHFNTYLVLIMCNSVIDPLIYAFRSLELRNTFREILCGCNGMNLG
From the text: as §1, §2, §3, §4
(§5) The cAMP concentration was determined by ELISA. Briefly, 96 well ELISA plates were coated with goat anti-cAMP antibody in PBS for 12 to 72 hr at 4° C. 50 μl of sample was mixed with 50 μl of cAMP ELISA buffer containing 1% bovine serum albumin, 10% heat inactivated donor horse serum, 1% normal mouse serum and 0.05% TWEEN-20 in PBS, and the diluted sample was added to the coated ELISA plate. Standards of known concentrations of cAMP were added to separate wells. Then, cAMP-conjugated horseradish peroxidase (cAMP-HRP) was added to each well at 25 μl of 16 ng/ml. The plates were incubated for 3 hr at room temperature. Plates were washed and the binding of cAMP-HRP was detected with 3,3′,5,5′-tetramethylbenzidine (TMB) and hydrogen peroxide using standard immunoassay procedures.
(§6) Various compounds were tested for in vitro activity and binding to melanocortin receptors. MC-3 stimulatory effect is also described in terms of percentage of stimulation obtained by adding HP-228 at 0.8 μM. The EC50 values are the concentration of ligand necessary to achieve 50% of the maximum increase by that ligand in an assay. The IC50 values are the concentration giving 50% inhibition of binding of ^125I-HP 467.

MC-4 = biological target: T3, MC-4 (Homo sapiens, UniProt P32245); assay: cAMP assay for melanocortin receptors, HEK 293 cells expressing MC-4; format: cell-based; details: concentration for 50% of the maximum increase by that ligand
T3 construct: expressed in transfected cells; host or cells: HEK 293
T3 sequence (P32245 whole entry): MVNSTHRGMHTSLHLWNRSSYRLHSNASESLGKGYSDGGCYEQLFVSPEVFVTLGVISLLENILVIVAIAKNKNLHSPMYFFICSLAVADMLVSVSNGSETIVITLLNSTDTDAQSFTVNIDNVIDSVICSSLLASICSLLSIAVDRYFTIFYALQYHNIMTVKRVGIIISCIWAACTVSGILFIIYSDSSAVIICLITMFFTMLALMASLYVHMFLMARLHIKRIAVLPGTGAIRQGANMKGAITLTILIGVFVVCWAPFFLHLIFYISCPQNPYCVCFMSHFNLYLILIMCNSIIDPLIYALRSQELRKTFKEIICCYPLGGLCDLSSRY
From the text: as §1, §2, §3, §4, §5, §6

male Sprague-Dawley rats [1] = assay: Effect of oxytocin receptor antagonist vasotocin on erectile effects in rats; format: in vivo; details: rat
From the text: (§7) In both examples, male Sprague-Dawley rats, about 200 to 225 g, were acclimated for 5 days in a reverse light:dark cycle room (dark 10 a.m. to 10 p.m.) before being aseptically ICV cannulated. Rats with indwelling ICV cannulae were housed one per cage. After surgery, 4 days were allowed for recovery and 10 days total were allowed for adaptation to the light cycle. Rats were caged individually after surgery and body weights at the time of treatment averaged 250 g. Otherwise, the procedure is essentially the same as in Example II.
Treatment was between 10 a.m. and 1 p.m. […] Vasotocin (Peninsula Laboratories, San Carlos Calif.) was administered ICV at 100 ng/rat. Oxytocin (Sigma, St. Louis Mo.) was administered ICV at 30 ng/rat (10 μl/rat PBS). Ten minutes later, IP injections of HP-228 or vehicle were given. HP-228 was administered IP at 2 mg/kg in 3 ml/kg PBS. One group of animals received ICV injections of vasotocin and oxytocin ICV injections of 5 μl/rat each at double concentrations for a total of 10 μl injected ICV. In this group, the rats received vasotocin first, followed by oxytocin.

male Sprague-Dawley rats [2] = assay: Effect of dopamine receptor antagonist sulpiride on erectile effects in rats; format: in vivo; details: rat
From the text: as §7
Treatment was between 9:30 a.m. and noon. Each animal received an initial IP injection of vehicle (3 ml/kg PBS) or sulpiride. Sulpiride (Sigma) was administered IP at 50 mg/kg (6 ml/kg IP). Ten minutes later, the animals received a final IP injection of HP-228 or vehicle or a SC injection of apomorphine. HP-228 was administered IP at 2 mg/kg in 3 ml/kg PBS. Apomorphine (Sigma) was administered SC at 0.1 mg/kg (1 ml/kg sterile water).

[3] = single agent plus PBS: oxytocin 30 ng/rat ICV, HP-228 2 mg/kg IP, vasotocin 100 ng/rat ICV
[4] = single agent plus PBS: apomorphine 0.1 mg/kg SC, HP-228 2 mg/kg IP, sulpiride 50 mg/kg IP
[5] = sulpiride 50 mg/kg IP followed by HP-228 2 mg/kg IP
[6] = sulpiride 50 mg/kg IP followed by apomorphine 0.1 mg/kg SC
[7] = vasotocin 100 ng/rat ICV followed by HP-228 2 mg/kg IP
[8] = vasotocin ICV followed by oxytocin ICV

T1 sequence (Q01726 whole entry): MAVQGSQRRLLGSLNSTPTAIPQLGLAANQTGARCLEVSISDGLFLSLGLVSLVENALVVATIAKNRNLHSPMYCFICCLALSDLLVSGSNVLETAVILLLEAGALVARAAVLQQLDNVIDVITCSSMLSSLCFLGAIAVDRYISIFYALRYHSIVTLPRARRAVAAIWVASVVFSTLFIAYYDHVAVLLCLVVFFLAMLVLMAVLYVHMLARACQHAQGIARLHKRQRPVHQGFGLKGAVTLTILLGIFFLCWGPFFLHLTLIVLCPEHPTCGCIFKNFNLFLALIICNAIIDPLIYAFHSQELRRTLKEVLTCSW

EC50 (MC-1)	Emax (MC-3)	EC50 (MC-3)	EC50 (MC-4)	Compound	further results
470 nM	89%	7650 nM	–	CC(C)(C)c1ccc(-c2nc3cc(C(=O)N(CCc4ccccc4)Cc4ccccc4)ccc3n2C(CCCNC(=N)N)C(N)=O)cc1 (centres unmarked) [Compound A]	–
–	115%	1330 nM	12000 nM	CCCCOc1ccc(-c2nc3cc(C(=O)NC(Cc4ccccc4)c4ccccc4)ccc3n2C(CCCNC(=N)N)C(N)=O)cc1 (centres unmarked) [Compound B]	–
–	92%	1400 nM	10600 nM	CC(C)c1ccc(-c2nc3cc(C(=O)NC(Cc4ccccc4)c4ccccc4)ccc3n2C(CCCNC(=N)N)C(N)=O)cc1 (centres unmarked) [Compound C]	–
–	140%	1700 nM	2800 nM	CC(C)c1ccc(-c2nc3cc(C(=O)N(CCc4ccccc4)Cc4ccccc4)ccc3n2C(CCCNC(=N)N)C(N)=O)cc1 (centres unmarked) [Compound D]	–
430 nM	59%	6700 nM	19900 nM	CC(C)(C)c1ccc(-c2nc3cc(C(=O)NC(Cc4ccccc4)c4ccccc4)ccc3n2C(CCCNC(=N)N)C(N)=O)cc1 (centres unmarked) [Compound E]	–
380 nM	91%	1750 nM	80 nM	CC(C)(C)c1ccc(-c2nc3cc(C(=O)N4CC=C(c5ccc(Cl)cc5)CC4)ccc3n2[C@@H](CCCNC(=N)N)C(N)=O)cc1 [Compound K]	–
220 nM	350%	4690 nM	6350 nM	CC(C)(C)c1ccc(-c2nc3cc(C(=O)N(CCc4ccccc4)Cc4cccnc4)ccc3n2[C@@H](CCCNC(=N)N)C(N)=O)cc1 [Compound L]	–
–	89%	3670 nM	–	CCCCOc1ccc(-c2nc3cc(C(=O)N(CCc4ccccc4)Cc4cccnc4)ccc3n2[C@@H](CCCNC(=N)N)C(N)=O)cc1 [Compound M]	–
–	229%	2320 nM	5900 nM	CCCCCc1ccc(-c2nc3cc(C(=O)N(CCc4ccccc4)Cc4ccccc4)ccc3n2[C@@H](CCCNC(=N)N)C(N)=O)cc1 [Compound N]	–
–	–	–	–	CC[C@H](C)[C@@H]1NC(=O)[C@H](Cc2ccc(O)cc2)NC(=O)[C@@H](N)CSSC[C@@H](C(=O)N2CCC[C@H]2C(=O)N[C@@H](CC(C)C)C(=O)NCC(N)=O)NC(=O)[C@H](CC(N)=O)NC(=O)[C@H](CCC(N)=O)NC1=O [Oxytocin]	response rate, % of animals (male Sprague-Dawley rats [1]; oxytocin and HP-228 groups): 88%-100%; erections per hour (male Sprague-Dawley rats [1]; [3]): 3.9 erections per hour; responder rate of animals (rats responding out of rats) (male Sprague-Dawley rats [1]; [3]): 7/8
–	–	–	–	CN1CCc2cccc3c2[C@H]1Cc1ccc(O)c(O)c1-3 [apomorphine]	response rate, % of animals (male Sprague-Dawley rats [2]; apomorphine and HP-228 groups): 100%; erections per hour (male Sprague-Dawley rats [2]; [4]): 4.0 erections per hour; rate of animals responding (male Sprague-Dawley rats [2]; [4]): 6/6
–	–	–	–	CCN1CCCC1CNC(=O)c1cc(S(N)(=O)=O)ccc1OC (centres unmarked) [sulpiride]	erections per hour (male Sprague-Dawley rats [2]; [4]): 0.0 erections per hour; rate of animals responding (male Sprague-Dawley rats [2]; [4]): 0/2; erections per hour (male Sprague-Dawley rats [2]; [5]): 6.7 erections per hour; rate of animals responding (male Sprague-Dawley rats [2]; [5]): 4/4; erections per hour (male Sprague-Dawley rats [2]; [6]): 1.5 erections per hour; rate of animals responding (male Sprague-Dawley rats [2]; [6]): 3/4
–	–	–	–	d(CH2)5-Tyr(Me^2)-Orn^8-Vasotocin	erections per hour (male Sprague-Dawley rats [1]; [3]): 0.2 erections per hour; responder rate of animals (rats responding out of rats) (male Sprague-Dawley rats [1]; [3]): 2/8; erections per hour (male Sprague-Dawley rats [1]; [7]): 5.6 erections per hour; responder rate of animals (rats responding out of rats) (male Sprague-Dawley rats [1]; [7]): 8/8; erections per hour (male Sprague-Dawley rats [1]; [8]): 1.0 erections per hour; responder rate of animals (rats responding out of rats) (male Sprague-Dawley rats [1]; [8]): 4/8
